The text below walks through data of patent US10040781B2, “Tank-binding kinase inhibitor compounds” (Gilead Sciences, Inc., priority 2014, dated 2018).

One assay addresses IKKε (Homo sapiens (Human), UniProt Q14164). Put plainly: IKKε TR-FRET enzymatic assay. The format is biochemical. Conditions: TR-FRET, 2×Km ATP; geometric mean of minimum four determinations; read-out: IKKe IC50.
For a further assay, the target named is hJAK2 (Homo sapiens (Human), UniProt O60674). Put plainly: hJAK2 LANCE TR-FRET enzymatic assay. The class given is biochemical. The conditions noted are these: read-out: JAK2 IC50.
Chain of hJAK2 (O60674 whole entry): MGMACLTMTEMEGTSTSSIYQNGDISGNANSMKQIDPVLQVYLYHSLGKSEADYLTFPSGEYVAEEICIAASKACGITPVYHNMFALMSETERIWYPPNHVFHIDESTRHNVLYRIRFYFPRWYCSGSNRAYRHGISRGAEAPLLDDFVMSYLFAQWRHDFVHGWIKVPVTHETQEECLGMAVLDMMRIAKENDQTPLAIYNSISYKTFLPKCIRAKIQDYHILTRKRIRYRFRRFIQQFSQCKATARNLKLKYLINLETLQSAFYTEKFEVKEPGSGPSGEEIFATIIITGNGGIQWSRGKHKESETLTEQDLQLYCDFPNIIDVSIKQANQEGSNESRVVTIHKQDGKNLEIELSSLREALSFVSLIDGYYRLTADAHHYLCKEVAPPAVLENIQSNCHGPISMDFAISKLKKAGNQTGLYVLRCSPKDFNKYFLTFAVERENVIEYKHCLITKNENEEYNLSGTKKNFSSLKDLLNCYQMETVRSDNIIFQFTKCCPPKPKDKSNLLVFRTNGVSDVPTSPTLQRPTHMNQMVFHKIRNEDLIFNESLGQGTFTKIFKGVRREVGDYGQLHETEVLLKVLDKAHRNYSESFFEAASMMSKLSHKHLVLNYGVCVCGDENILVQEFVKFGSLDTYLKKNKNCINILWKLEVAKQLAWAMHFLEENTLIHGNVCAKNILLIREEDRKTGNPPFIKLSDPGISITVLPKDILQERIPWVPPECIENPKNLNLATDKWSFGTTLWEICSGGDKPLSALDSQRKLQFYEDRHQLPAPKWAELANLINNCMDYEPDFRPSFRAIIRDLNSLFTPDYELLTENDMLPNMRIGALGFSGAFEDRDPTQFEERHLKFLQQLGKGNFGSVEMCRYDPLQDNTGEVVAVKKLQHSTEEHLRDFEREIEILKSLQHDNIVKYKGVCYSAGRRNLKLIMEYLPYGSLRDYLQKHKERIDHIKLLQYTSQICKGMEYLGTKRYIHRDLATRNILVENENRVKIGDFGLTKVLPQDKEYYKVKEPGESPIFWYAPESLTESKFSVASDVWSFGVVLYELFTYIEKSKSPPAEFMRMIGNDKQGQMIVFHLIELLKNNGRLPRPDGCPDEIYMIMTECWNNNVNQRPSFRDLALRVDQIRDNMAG
A further assay deals with TBK1 (Homo sapiens (Human), UniProt Q9UHD2). Put plainly: TBK1 TR-FRET enzymatic assay.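 Further: phosphorylation of a biotinylated Ser/Thr peptide by purified full-length recombinant TBK1, read by TR-FRET after 240 min at 25 °C, IC50 is the geometric mean of at least four runs.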
Chain of TBK1 (Q9UHD2 whole entry): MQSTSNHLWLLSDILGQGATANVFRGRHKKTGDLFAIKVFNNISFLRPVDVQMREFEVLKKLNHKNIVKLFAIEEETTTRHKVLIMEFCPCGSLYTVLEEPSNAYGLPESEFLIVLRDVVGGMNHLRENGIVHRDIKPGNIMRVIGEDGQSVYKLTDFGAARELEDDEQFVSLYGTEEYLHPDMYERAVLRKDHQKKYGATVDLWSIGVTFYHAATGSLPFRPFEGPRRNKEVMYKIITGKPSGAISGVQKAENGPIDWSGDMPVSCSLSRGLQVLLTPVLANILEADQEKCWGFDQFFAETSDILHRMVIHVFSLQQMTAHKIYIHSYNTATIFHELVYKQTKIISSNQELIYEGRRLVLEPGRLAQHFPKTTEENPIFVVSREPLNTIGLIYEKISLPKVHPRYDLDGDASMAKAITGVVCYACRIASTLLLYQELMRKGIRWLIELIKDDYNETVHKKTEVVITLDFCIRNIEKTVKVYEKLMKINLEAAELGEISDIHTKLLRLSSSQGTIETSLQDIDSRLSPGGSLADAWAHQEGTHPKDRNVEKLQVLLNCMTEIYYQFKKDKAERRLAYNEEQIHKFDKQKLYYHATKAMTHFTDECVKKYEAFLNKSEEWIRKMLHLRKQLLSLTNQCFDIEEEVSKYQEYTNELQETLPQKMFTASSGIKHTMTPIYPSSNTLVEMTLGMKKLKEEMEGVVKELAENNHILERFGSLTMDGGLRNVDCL

Bounds are passed on as bounds.

Chain of IKKε (Q14164 whole entry): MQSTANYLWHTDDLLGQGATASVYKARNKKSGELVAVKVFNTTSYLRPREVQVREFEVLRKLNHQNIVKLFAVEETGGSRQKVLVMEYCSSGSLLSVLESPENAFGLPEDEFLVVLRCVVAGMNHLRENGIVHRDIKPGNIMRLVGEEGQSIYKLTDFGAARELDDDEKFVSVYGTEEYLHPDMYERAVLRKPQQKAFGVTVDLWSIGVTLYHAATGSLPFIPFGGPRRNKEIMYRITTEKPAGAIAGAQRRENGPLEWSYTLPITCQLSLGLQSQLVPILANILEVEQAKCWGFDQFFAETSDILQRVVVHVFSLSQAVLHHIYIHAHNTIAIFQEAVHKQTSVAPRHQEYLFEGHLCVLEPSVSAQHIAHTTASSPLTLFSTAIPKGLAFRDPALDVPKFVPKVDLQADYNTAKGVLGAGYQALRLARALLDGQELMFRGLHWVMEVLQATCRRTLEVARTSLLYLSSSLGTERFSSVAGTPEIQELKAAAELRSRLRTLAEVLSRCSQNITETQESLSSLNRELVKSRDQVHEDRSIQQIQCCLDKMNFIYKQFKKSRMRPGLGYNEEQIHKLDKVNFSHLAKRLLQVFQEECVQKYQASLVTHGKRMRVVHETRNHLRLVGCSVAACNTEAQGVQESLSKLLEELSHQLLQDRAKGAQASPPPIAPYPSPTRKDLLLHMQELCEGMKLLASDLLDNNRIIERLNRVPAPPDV

Consider `N#Cc1cc(-c2ncnc(Nc3ccc(N4CCN(C5COC5)CC4)nc3)n2)ccc1O[C@H]1CCN(C(=O)[C@@H](O)CO)C[C@H]1F` [Example 510, 2-(((3R,4S)-1-((S)-2,3-dihydroxypropanoyl)-3-fluoropiperidin-4-yl)oxy)-5-(4-((6-(4-(oxetan-3-yl)piperazin-1-yl)pyridin-3-yl)amino)-1,3,5-triazin-2-yl)benzonitrile], for which the IC50 on IKKε was 2 nM; on hJAK2 it was at least 1000 nM; against TBK1, 4 nM.

As to `COc1cc(Nc2ncnc(-c3ccc(O[C@H]4CCN(C(=O)[C@@H](O)CO)C[C@H]4F)c(C#N)c3)n2)cnc1N1CCN(C2COC2)CC1` [Example 511, 2-(((3R,4S)-1-((S)-2,3-dihydroxypropanoyl)-3-fluoropiperidin-4-yl)oxy)-5-(4-((5-methoxy-6-(4-(oxetan-3-yl)piperazin-1-yl)pyridin-3-yl)amino)-1,3,5-triazin-2-yl)benzonitrile], the values for the IC50 on IKKε, at hJAK2 and against TBK1 were 2 nM, at least 1000 nM and 4 nM, respectively.

`CC(C)(O)Cn1cc(Nc2ncnc(-c3ccc(O[C@H]4CCN(C(=O)[C@@H](O)CO)C[C@H]4F)c(C#N)c3)n2)cn1` [Example 512, 2-(((3R,4S)-1-((S)-2,3-dihydroxypropanoyl)-3-fluoropiperidin-4-yl)oxy)-5-(4-((1-(2-hydroxy-2-methylpropyl)-1H-pyrazol-4-yl)amino)-1,3,5-triazin-2-yl)benzonitrile]: the values for the IC50 at IKKε, at hJAK2 and against TBK1 were 2 nM, at least 1000 nM and 2 nM, respectively.

Take `Cc1cc(Nc2ncnc(-c3ccc(O[C@H]4CCN(C(=O)[C@@H](O)CO)C[C@H]4F)c(C#N)c3)n2)cnc1N1CCN(C2COC2)CC1` [Example 513, 2-(((3R,4S)-1-((S)-2,3-dihydroxypropanoyl)-3-fluoropiperidin-4-yl)oxy)-5-(4-((5-methyl-6-(4-(oxetan-3-yl)piperazin-1-yl)pyridin-3-yl)amino)-1,3,5-triazin-2-yl)benzonitrile]: the IC50 at IKKε came to 1 nM; on hJAK2 it was 517 nM; against TBK1, 2 nM.

`C[C@H](O)C(=O)N1CC[C@H](Oc2ccc(-c3ncnc(Nc4cnc5c(c4)OCCN5)n3)cc2C#N)[C@H](F)C1` [Example 516, 5-(4-((3,4-dihydro-2H-pyrido[3,2-b][1,4]oxazin-7-yl)amino)-1,3,5-triazin-2-yl)-2-(((3R,4S)-3-fluoro-1-((S)-2-hydroxypropanoyl)piperidin-4-yl)oxy)benzonitrile]: the IC50 was 10 nM on IKKε, at least 1000 nM at hJAK2 and 6 nM against TBK1.

As to `C[C@H](O)C(=O)N1CC[C@H](Oc2ccc(-c3ncnc(Nc4ccc5c(c4)NCCO5)n3)cc2C#N)[C@H](F)C1` [Example 517, 5-(4-((3,4-dihydro-2H-benzo[b][1,4]oxazin-6-yl)amino)-1,3,5-triazin-2-yl)-2-(((3R,4S)-3-fluoro-1-((S)-2-hydroxypropanoyl)piperidin-4-yl)oxy)benzonitrile], the IC50 at IKKε stood at 1 nM; at hJAK2 it was 828 nM; at TBK1 it was 2 nM.

Regarding `N#Cc1cc(-c2ncnc(Nc3ccc(N4CCN(C5COC5)CC4)cc3)n2)ccc1O[C@H]1CCN(C(=O)[C@@H]2COC(=O)N2)CC1(F)F` [Example 519, 2-(((S)-3,3-difluoro-1-((S)-2-oxooxazolidine-4-carbonyl)piperidin-4-yl)oxy)-5-(4-((4-(4-(oxetan-3-yl)piperazin-1-yl)phenyl)amino)-1,3,5-triazin-2-yl)benzonitrile], the IC50 is 1 nM on IKKε, 184 nM at hJAK2 and 2 nM against TBK1.

`N#Cc1cc(-c2ncnc(Nc3ccc(N4CCN(C5COC5)CC4)cc3)n2)ccc1O[C@H]1CCN(C(=O)[C@@H]2CSC(=O)N2)CC1(F)F` [Example 520, 2-(((S)-3,3-difluoro-1-((R)-2-oxothiazolidine-4-carbonyl)piperidin-4-yl)oxy)-5-(4-((4-(4-(oxetan-3-yl)piperazin-1-yl)phenyl)amino)-1,3,5-triazin-2-yl)benzonitrile]: the IC50 at IKKε came out at 1 nM; on hJAK2, 177 nM; at TBK1, 2 nM.

With `Cc1cc(-c2ncnc(Nc3ccc(N4CCN(C5COC5)CC4)cc3)n2)cc(C#N)c1O[C@H]1CCN(C(=O)[C@H](C)O)C[C@H]1F` [Example 521, 2-(((3R,4S)-3-fluoro-1-((S)-2-hydroxypropanoyl)piperidin-4-yl)oxy)-3-methyl-5-(4-((4-(4-(oxetan-3-yl)piperazin-1-yl)phenyl)amino)-1,3,5-triazin-2-yl)benzonitrile], the half-inhibitory concentration (IC50) on IKKε was 39 nM; on hJAK2 it was at least 1000 nM; at TBK1 it was 16 nM.

Consider `Cc1cc(-c2ncnc(Nc3ccc(N4CCN(C5COC5)CC4)cc3)n2)cc(C#N)c1O[C@H]1CCN(C(=O)CO)C[C@H]1F` [Example 522, 2-(((3R,4S)-3-fluoro-1-(2-hydroxyacetyl)piperidin-4-yl)oxy)-3-methyl-5-(4-((4-(4-(oxetan-3-yl)piperazin-1-yl)phenyl)amino)-1,3,5-triazin-2-yl)benzonitrile], for which the 50% inhibitory concentration (IC50) is 28 nM at IKKε, at least 1000 nM on hJAK2 and 14 nM against TBK1.

Turning to `C[C@@H]1OC(=O)N[C@@H]1C(=O)N1CC[C@H](Oc2ccc(-c3ncnc(Nc4ccc(N5CCN(C6COC6)CC5)cc4)n3)cc2C#N)[C@H](F)C1` [Example 524, 2-(((3R,4S)-3-fluoro-1-((4S,5S)-5-methyl-2-oxooxazolidine-4-carbonyl)piperidin-4-yl)oxy)-5-(4-((4-(4-(oxetan-3-yl)piperazin-1-yl)phenyl)amino)-1,3,5-triazin-2-yl)benzonitrile], the figures for the IC50 at IKKε, on hJAK2 and at TBK1 were 29 nM, 959 nM and 7 nM, respectively.

Take `N#Cc1cc(-c2ncnc(Nc3ccc(N4CCN(C5COC5)CC4)cc3)n2)ccc1O[C@H]1CCN(C(=O)c2coc(=O)[nH]2)C[C@H]1F` [Example 525, 2-(((3R,4S)-3-fluoro-1-(2-oxo-2,3-dihydrooxazole-4-carbonyl)piperidin-4-yl)oxy)-5-(4-((4-(4-(oxetan-3-yl)piperazin-1-yl)phenyl)amino)-1,3,5-triazin-2-yl)benzonitrile]: the IC50 worked out at 3 nM at IKKε, 390 nM at hJAK2 and 3 nM against TBK1.

For the compound `Cc1n[nH]c(C(=O)N2CC[C@H](Oc3ccc(-c4ncnc(Nc5ccc(N6CCN(C7COC7)CC6)cc5)n4)cc3C#N)[C@H](F)C2)c1C` [Example 526, 2-(((3R,4S)-1-(3,4-dimethyl-1H-pyrazole-5-carbonyl)-3-fluoropiperidin-4-yl)oxy)-5-(4-((4-(4-(oxetan-3-yl)piperazin-1-yl)phenyl)amino)-1,3,5-triazin-2-yl)benzonitrile], the IC50 came to 19 nM at IKKε, 447 nM on hJAK2 and 9 nM against TBK1.

For `Cc1c[nH]c(C(=O)N2CC[C@H](Oc3ccc(-c4ncnc(Nc5ccc(N6CCN(C7COC7)CC6)cc5)n4)cc3C#N)[C@H](F)C2)n1` [Example 527, 2-(((3R,4S)-3-fluoro-1-(4-methyl-1H-imidazole-2-carbonyl)piperidin-4-yl)oxy)-5-(4-((4-(4-(oxetan-3-yl)piperazin-1-yl)phenyl)amino)-1,3,5-triazin-2-yl)benzonitrile], the values for the IC50 at IKKε, on hJAK2 and at TBK1 were 8 nM, 323 nM and 5 nM, respectively.

In the case of `Cc1cn[nH]c1C(=O)N1CC[C@H](Oc2ccc(-c3ncnc(Nc4ccc(N5CCN(C6COC6)CC5)cc4)n3)cc2C#N)[C@H](F)C1` [Example 528, 2-(((3R,4S)-3-fluoro-1-(4-methyl-1H-pyrazole-5-carbonyl)piperidin-4-yl)oxy)-5-(4-((4-(4-(oxetan-3-yl)piperazin-1-yl)phenyl)amino)-1,3,5-triazin-2-yl)benzonitrile], the values for the IC50 on IKKε, on hJAK2 and on TBK1 were 20 nM, 368 nM and 8 nM, respectively.

As for `N#Cc1cc(-c2ncnc(Nc3ccc(N4CCN(C5COC5)CC4)cc3)n2)ccc1O[C@H]1CCN(C(=O)[C@@H]2CC(=O)N2)C[C@H]1F` [Example 529, 2-(((3R,4S)-3-fluoro-1-((S)-4-oxoazetidine-2-carbonyl)piperidin-4-yl)oxy)-5-(4-((4-(4-(oxetan-3-yl)piperazin-1-yl)phenyl)amino)-1,3,5-triazin-2-yl)benzonitrile], the figures for the IC50 at IKKε, at hJAK2 and at TBK1 were 4 nM, 356 nM and 3 nM, respectively.

Regarding `COc1cc(Nc2ncnc(-c3ccc(O[C@@H]4CCC(=O)NC4)c(C#N)c3)n2)ccc1N1CCN(C2COC2)CC1` [Example 531, (R)-5-(4-((3-methoxy-4-(4-(oxetan-3-yl)piperazin-1-yl)phenyl)amino)-1,3,5-triazin-2-yl)-2-((6-oxopiperidin-3-yl)oxy)benzonitrile], the IC50 at IKKε stood at 3 nM; on hJAK2, 55 nM; at TBK1 it was 4 nM.

As for `Cc1cc(Nc2ncnc(-c3ccc(O[C@H]4CCN(C(=O)CCO)C[C@H]4F)c(C#N)c3)n2)ccc1N1CCN(C2COC2)CC1` [Example 533, 2-(((3R,4S)-3-fluoro-1-(3-hydroxypropanoyl)piperidin-4-yl)oxy)-5-(4-((3-methyl-4-(4-(oxetan-3-yl)piperazin-1-yl)phenyl)amino)-1,3,5-triazin-2-yl)benzonitrile], the IC50 at IKKε is 7 nM; on hJAK2, 88 nM; at TBK1 it was 4 nM.

As to `Cc1cc(Nc2ncnc(-c3ccc(N4C[C@H](O)C[C@@H]4C)c(C#N)c3)n2)ccc1N1CCN(C2COC2)CC1` [Example 534, 2-((2S,4R)-4-hydroxy-2-methylpyrrolidin-1-yl)-5-(4-((3-methyl-4-(4-(oxetan-3-yl)piperazin-1-yl)phenyl)amino)-1,3,5-triazin-2-yl)benzonitrile], the figures for the IC50 on IKKε, on hJAK2 and on TBK1 were 7 nM, 32 nM and 4 nM, respectively.
